Key:
Bcl10 = assay: solid-phase sandwich ELISA for Bcl10 in NCM460 cells; type: cell-based, human
Description: NCM460 and primary colon cells were treated with different concentrations (1, 10 and 20 ng/ml) of lipopolysaccharide (LPS; from E. coli 026:B6, #L2654, Sigma-Aldrich, St. Louis, Mo.) for durations of 2, 4, 6, or 24 hours. The endotoxin level of the LPS from E. coli was reported as 500,000 EU (Endotoxin Units)/mg LPS. The secretion of IL-8 and the cellular content of Bcl10 and phospho-IκBα proteins in response to these treatments were assayed. […] A second LPS (from Salmonella enterica serotype Minnesota; #L4641, Sigma-Aldrich, St. Louis, Mo.) was also used for some of the experiments. The endotoxin level of the batch of Salmonella enterica was reported as 800,000 EU/mg LPS.
The expression of Bcl10 in NCM460 cells or primary colon cells was determined by a solid-phase sandwich ELISA designed to quantify cellular Bcl10. Control or treated cells were lysed in RIPA buffer (50 mM Tris-HCl containing 0.15 M NaCl, 1% Nonidet P40, 0.5% deoxycholic acid and 0.1% SDS, pH 7.4) and the cell extracts were stored at −80° C. until assayed. Bcl10 molecules in the samples or standards were captured in the wells of a microtiter plate pre-coated with rabbit polyclonal antibody to Bcl10 (QED Bioscience Inc., San Diego, Calif.). Immobilized Bcl10 molecules were detected by a mouse monoclonal antibody to Bcl10 (Novus Biologicals, Littleton, Colo.) and goat anti-mouse IgG-horseradish peroxidase (HRP) complex (Santa Cruz Biotechnology, Santa Cruz, Calif.). The peroxidase enzyme activity bound to Bcl10 molecules was determined by chromogenic reaction with hydrogen peroxide/tetramethylbenzidine. Color development due to enzymatic activity was stopped by 2N sulfuric acid, and intensity of the color was measured at 450 nm in ELISA Plate reader (SLT, Spectra). Bcl10 concentrations of the samples were extrapolated from a standard curve derived using known concentrations of recombinant Bcl10 (Calbiochem, EMD Bioscience, San Diego, Carlsbad, Calif.). Sample values were normalized with the total cell protein concentrations determined by BCA™ Protein assay kit (Pierce, Rockford, Ill.). […]

IL-8 = assay: ELISA for IL-8 in spent media of NCM460 cells; type: cell-based, human
Description: NCM460 and primary colon cells were treated with different concentrations (1, 10 and 20 ng/ml) of lipopolysaccharide (LPS; from E. coli 026:B6, #L2654, Sigma-Aldrich, St. Louis, Mo.) for durations of 2, 4, 6, or 24 hours. The endotoxin level of the LPS from E. coli was reported as 500,000 EU (Endotoxin Units)/mg LPS. The secretion of IL-8 and the cellular content of Bcl10 and phospho-IκBα proteins in response to these treatments were assayed. In the majority of experiments, LPS 10 ng/ml for 6 hours was selected as the optimal dose and duration. A second LPS (from Salmonella enterica serotype Minnesota; #L4641, Sigma-Aldrich, St. Louis, Mo.) was also used for some of the experiments. The endotoxin level of the batch of Salmonella enterica was reported as 800,000 EU/mg LPS.
The secretion of IL-8 in the spent media of control and treated NCM460 cells and primary colon cells was measured by the DuoSet Enzyme-linked Immunosorbent Assay (ELISA) kit for human IL-8 (R&D Systems Inc, Minneapolis, Minn.), according to the manufacturer's instructions. The IL-8 in the spent media was captured into the wells of a microtiter plate pre-coated with specific anti-IL-8 monoclonal antibody. Immobilized IL-8 was then detected by biotin-conjugated secondary IL-8 antibody and Streptavidin-HRP. Hydrogen peroxide/tetramethylbenzidine chromogenic substrate was used to develop the color and the intensity of color was measured at 450 nm with a reference filter of 570 nm in an ELISA plate reader (SLT, Spectra). The IL-8 concentrations were extrapolated from a standard curve plotted using known concentrations of IL-8. The sample values were normalized with total protein content (BCA™ Protein assay kit; Pierce, Rockford, Ill.) and expressed as pg or ng/mg cellular protein.

[1] = NCM460 cells, 50 μM inhibitor 2 hours prior to 6 hours LPS 10 ng/ml
[2] = human IEC, LPS 10 ng/ml for 2-6 hours

O=C(Nc1nc2ccccc2n1CCN1CCOCC1)c1cccc([N+](=O)[O-])c1 [IRAK 1/4 inhibitor, N-(2-morpholinylethyl)-2-(3-nitrobenzoylamido)-benzimidazole]
Bcl10 after LPS with IRAK 1/4 inhibitor (Bcl10; [1]): 2.36 ± 0.08 ng/mL | decline of the LPS-induced increase in Bcl10 (Bcl10; [1]): 73% | effect on the LPS-induced increase in Bcl10 (result in words) (Bcl10; [2]): eliminated | IL-8 after LPS with IRAK 1/4 inhibitor (IL-8; [1]): 1.14 ± 0.08 ng/mL | decline of the LPS-induced increase in IL-8 response (IL-8; [1]): 60% | effect on the LPS-induced increase in IL-8 (result in words) (IL-8; [2]): eliminated
